Measured values published in PubChem BioAssay AID256 (DTP/NCI, 2004).
Where “and” joins values, the source holds several entries; their conditions need not be identical. Equal values may be shown once. Toxic doses and inconclusive results are not listed.

Tested on: CD2F1 mice, L1210 leukemia ip, survival T/C
Assay: NCI In Vivo Anticancer Drug Screen. Data for tumor model L1210 Leukemia (intraperitoneal) in CD2F1 (CDF1) mice
Settings: higher = longer survival
Experimental: The antitumor activity of compounds was measured in mice bearing transplantable tumors. Survival or tumor size were measured and the results are expressed as the measurement made in the treated group (T) divided by the measurement made in the vehicle treated control group (C). The tumor model used in this assay is L1210 Leukemia (intraperitoneal) in CD2F1 (CDF1) mice

[1] = endpoint: mean survival time, dose: 100.0 mg/kg/injection, schedule: Q04DX003 (ip), vehicle: saline with Tween-80
[2] = endpoint: mean survival time, dose: 200.0 mg/kg/injection, schedule: Q04DX003 (ip), vehicle: saline with Tween-80
[3] = endpoint: mean survival time, dose: 400.0 mg/kg/injection, schedule: Q04DX003 (ip), vehicle: saline with Tween-80
[4] = endpoint: mean survival time, dose: 100.0 mg/kg/injection, schedule: Q01DX009 (ip), vehicle: saline with Tween-80
[5] = endpoint: mean survival time, dose: 200.0 mg/kg/injection, schedule: Q01DX009 (ip), vehicle: saline with Tween-80
[6] = endpoint: mean survival time, dose: 400.0 mg/kg/injection, schedule: Q01DX009 (ip), vehicle: saline with Tween-80

C[Si](C)(C)OSc1ccccc1[N+](=O)[O-]
T/C (endpoint: mean survival time, dose: 12.5 mg/kg/injection, schedule: Q01DX009 (ip), vehicle: Klucel (hydroxypropylcellulose) (HPC)): 95 % of control | T/C (endpoint: mean survival time, dose: 25.0 mg/kg/injection, schedule: Q01DX009 (ip), vehicle: Klucel (hydroxypropylcellulose) (HPC)): 97 % of control | T/C (endpoint: mean survival time, dose: 50.0 mg/kg/injection, schedule: Q01DX009 (ip), vehicle: Klucel (hydroxypropylcellulose) (HPC)): 100 % of control | T/C (endpoint: mean survival time, dose: 100.0 mg/kg/injection, schedule: Q01DX009 (ip), vehicle: Klucel (hydroxypropylcellulose) (HPC)): 93 % of control | T/C (endpoint: mean survival time, dose: 200.0 mg/kg/injection, schedule: Q01DX009 (ip), vehicle: Klucel (hydroxypropylcellulose) (HPC)): 92 % of control | T/C (endpoint: mean survival time, dose: 400.0 mg/kg/injection, schedule: Q01DX009 (ip), vehicle: Klucel (hydroxypropylcellulose) (HPC)): 91 % of control

CN1C(=O)c2ccccc2C1(/N=C/c1ccccc1)c1ccccc1 (stereo unspecified)
T/C [1]: 96 % of control | T/C [2]: 96 % of control | T/C [3]: 96 % of control

CC(C)=CC1CC(C)C2(CCC3(C)CC4C(C(=O)CC4(C)O)/C(C=O)=C\CC32)O1 (stereo unspecified)
T/C (endpoint: mean survival time, dose: 2.5 mg/kg/injection, schedule: Q01DX009 (ip), vehicle: saline with Tween-80): 97 % of control | T/C (endpoint: mean survival time, dose: 5.0 mg/kg/injection, schedule: Q01DX009 (ip), vehicle: saline with Tween-80): 94 % of control | T/C (endpoint: mean survival time, dose: 10.0 mg/kg/injection, schedule: Q01DX009 (ip), vehicle: saline with Tween-80): 97 % of control

Cc1cc(C)[nH]n1
T/C [1]: 95 % of control | T/C [2]: 93 % of control | T/C [3]: 97 % of control

COc1ccc2c(c1)-c1nn(CCCN(C)C)c3ccc([N+](=O)[O-])c(c13)N2
T/C (endpoint: median survival time, dose: 3.12 mg/kg/injection, schedule: Q01DX005 (ip), vehicle: water): 152 % of control | T/C (endpoint: median survival time, dose: 3.12 mg/kg/injection, schedule: Q01DX009 (ip), vehicle: water): 168 % of control | T/C (endpoint: median survival time, dose: 6.25 mg/kg/injection, schedule: Q01DX005 (ip), vehicle: water): 152 % of control | T/C (endpoint: median survival time, dose: 6.25 mg/kg/injection, schedule: Q01DX009 (ip), vehicle: water): 216 % of control | T/C (endpoint: median survival time, dose: 7.5 mg/kg/injection, schedule: Q01DX005 (ip), vehicle: water): 164 % of control | T/C (endpoint: median survival time, dose: 12.5 mg/kg/injection, schedule: Q01DX005 (ip), vehicle: water): 180 % of control | T/C (endpoint: median survival time, dose: 12.5 mg/kg/injection, schedule: Q01DX009 (ip), vehicle: water): 113 % of control | T/C (endpoint: median survival time, dose: 20.83 mg/kg/injection, schedule: Q01DX005 (ip), vehicle: water): 225 % of control | T/C (endpoint: median survival time, dose: 25.0 mg/kg/injection, schedule: Q01DX005 (ip), vehicle: water): 109 % of control | T/C (endpoint: median survival time, dose: 34.72 mg/kg/injection, schedule: Q01DX005 (ip), vehicle: water): 107 % of control | T/C (endpoint: median survival time, dose: 50.0 mg/kg/injection, schedule: Q01DX005 (ip), vehicle: water): 92 % of control and 94 % of control | T/C (endpoint: median survival time, dose: 50.0 mg/kg/injection, schedule: Q01DX009 (ip), vehicle: water): 116 % of control

NC(=S)NNC(N)=S
T/C [4]: 101 % of control | T/C [1]: 104 % of control | T/C [5]: 95 % of control | T/C [2]: 102 % of control | T/C [6]: 110 % of control | T/C [3]: 107 % of control

N#CC(OC(=O)c1ccccc1)c1cccc([N+](=O)[O-])c1 (stereo unspecified)
T/C [4]: 98 % of control | T/C [1]: 101 % of control | T/C [5]: 96 % of control | T/C [2]: 96 % of control | T/C [3]: 100 % of control

O=C(O)CNC(=O)COc1ccccc1
T/C [4]: 101 % of control | T/C [1]: 101 % of control | T/C [5]: 88 % of control | T/C [2]: 93 % of control | T/C [6]: 90 % of control | T/C [3]: 101 % of control

O=C1c2ccccc2C(=O)N1CCO
T/C [1]: 106 % of control | T/C [2]: 108 % of control | T/C [3]: 110 % of control

O=C(c1ccccc1)c1ccc([N+](=O)[O-])cc1
T/C (endpoint: mean survival time, dose: 100.0 mg/kg/injection, schedule: Q04DX003 (ip), vehicle: saline sonified): 92 % of control | T/C (endpoint: mean survival time, dose: 200.0 mg/kg/injection, schedule: Q04DX003 (ip), vehicle: saline sonified): 95 % of control | T/C (endpoint: mean survival time, dose: 400.0 mg/kg/injection, schedule: Q04DX003 (ip), vehicle: saline sonified): 100 % of control

O=C(O)CCc1[nH]c2ccccc2c1CC(=O)O
T/C (endpoint: mean survival time, dose: 100.0 mg/kg/injection, schedule: Q04DX002 (ip), vehicle: saline with Tween-80): 91 % of control | T/C (endpoint: mean survival time, dose: 200.0 mg/kg/injection, schedule: Q04DX002 (ip), vehicle: saline with Tween-80): 98 % of control | T/C (endpoint: mean survival time, dose: 400.0 mg/kg/injection, schedule: Q04DX002 (ip), vehicle: saline with Tween-80): 119 % of control

Nc1nc(N)nc(-c2ccncc2)n1
T/C (endpoint: mean survival time, dose: 12.5 mg/kg/injection, schedule: Q01DX009 (ip), vehicle: saline with Tween-80): 102 % of control | T/C (endpoint: mean survival time, dose: 25.0 mg/kg/injection, schedule: Q01DX009 (ip), vehicle: saline with Tween-80): 106 % of control | T/C (endpoint: mean survival time, dose: 50.0 mg/kg/injection, schedule: Q01DX009 (ip), vehicle: saline with Tween-80): 102 % of control
